Data on 16 compounds can be found in US20120095036A1, “NOVEL SUBSTITUTED INDAZOLE AND AZA-INDAZOLE DERIVATIVES AS GAMMA SECRETASE MODULATORS” (priority 2009, published 2012).

Data set [1] concerns Aβ42. Briefly: Method 2: Aβ42 Alphalisa on supernatant of SKNBE2 cells carrying APP 695 wild type. The format is cell-based. The following applies: SKNBE2 cells APP 695 wild type, overnight. On the procedure: (§1) Screening was carried out using SKNBE2 cells carrying the APP 695—wild type, grown in Dulbecco's Modified Eagle's Medium/Nutrient mixture F-12 (DMEM/NUT-mix F-12) (HAM) provided by Invitrogen (cat no. 10371-029) containing 5% Serum/Fe supplemented with 1% non-essential amino acids, 1-glutamine 2 mM, Hepes 15 mM, penicillin 50 U/ml (units/ml) en streptomycin 50 μg/ml. Cells were grown to near confluency.
(§2) The screening was performed using a modification of the assay as described in Citron et al (1997) Nature Medicine 3: 67. Briefly, cells were plated in a 384-well plate at 10^4 cells/well in Ultraculture (Lonza, BE12-725F) supplemented with 1% glutamine (Invitrogen, 25030-024), 1% non-essential amino acid (NEAA), penicillin 50 U/ml en streptomycin 50 μg/ml in the presence of test compound at different test concentrations. The cell/compound mixture was incubated overnight at 37° C., 5% CO2, The next day the media were assayed by two sandwich immuno-assays, for Aβ42 and Aβtotal.
(§3) Aβtotal and Aβ42 concentrations were quantified in the cell supernatant using the Aphalisa technology (Perkin Elmer). Alphalisa is a sandwich assay using biotinylated antibody attached to streptavidin coated donorbeads and antibody conjugated to acceptor beads. In the presence of antigen, the beads come into close proximity. The excitation of the donor beads provokes the release of singlet oxygen molecules that trigger a cascade of energy transfer in the acceptor beads, resulting in light emission. To quantify the amount of Aβ42 in the cell supernatant, monoclonal antibody specific to the C-terminus of Aβ42 (JRF/cAβ42/26) was coupled to the receptor beads and biotinylated antibody specific to the N-terminus of AB (JRF/AβN/25) was used to react with the donor beads. To quantify the amount of Aβtotal in the cell supernatant, monoclonal antibody specific to the N-terminus of AB (JRF/AβN/25) was coupled to the receptor beads and biotinylated antibody specific to the mid region of Aβ (biotinylated 4G8) was used to react with the donor beads.
(§4) To obtain the values reported in Table 3b, the data were calculated as percentage of the maximum amount of amyloid Beta 42 measured in the absence of the test compound. The sigmoidal dose response curves were analyzed using non-linear regression analysis with percentage of the control plotted against the log concentration of the compound. A 4-parameter equation was used to determine the IC50.
(In general: Bead proximity is the source of the signal in Alpha formats.)

Data set [2] concerns Aβtotal. The experiment in a line: Method 2: Aβtotal Alphalisa on supernatant of SKNBE2 cells carrying APP 695 wild type. The format is cell-based. The settings on record: SKNBE2 cells APP 695 wild type, overnight. On the procedure: as §1, §2, §3, §4
Data set [3] has as its system Aβ42. Briefly: Method 1: Aβ42 sandwich ELISA on media of SKNBE2 cells carrying APP 695 wild type (γ-secretase-modulating activity). The format is cell-based. The following applies: SKNBE2 cells APP 695 wild type, 18 hours. On the procedure: (§5) Screening was carried out using SKNBE2 cells carrying the APP 695—wild type, grown in Dulbecco's Modified Eagle's Medium/Nutrient mixture F-12 (DMEM/NUT-mix F-12) (HAM) provided by Gibco (cat no. 31330-38) containing 5% Serum/Fe supplemented with 1% non-essential amino acids. Cells were grown to near confluency.
(§6) The screening was performed using the assay as described in Citron et al (1997) Nature Medicine 3: 67. Briefly, cells were plated in a 96-well plate at about 10^5 cells/ml one day prior to addition of compounds. Compounds were added to the cells in Ultraculture (Lonza, BE12-725F) supplemented with 1% glutamine (Invitrogen, 25030-024) for 18 hours. The media were assayed by two sandwich ELISAs, for Aβ42 and Aβtotal. Toxicity of the compounds was assayed by WST-1 cell proliferation reagent (Roche, 1 644 807) according to the manufacturer's protocol.
To quantify the amount of Aβ42 in the cell supernatant, commercially available Enzyme-Linked-Immunosorbent-Assay (ELISA) kits were used (Innotest® β-Amyloid(1-42), Innogenetics N.V., Ghent, Belgium). The Aβ42 ELISA was performed essentially according to the manufacturer's protocol. Briefly, the standards (dilutions of synthetic A131-42) were prepared in polypropylene Eppendorf with final concentrations of 8000 down to […] (½ dilution step). Samples, standards and blanks (100 μl) were added to the anti-Aβ42-coated plate supplied with the kit (the capture antibody selectively recognizes the C-terminal end of the antigen). The plate was allowed to incubate 3 h at 25° C. in order to allow formation of the antibody-amyloid complex. Following this incubation and subsequent wash steps a selective anti-A13-antibody conjugate (biotinylated 3D6) was added and incubated for a minimum of 1 hour in order to allow formation of the antibody-Amyloid-antibody-complex. After incubation and appropriate wash steps, a Streptavidine-Peroxidase-Conjugate was added, followed 30 minutes later by an addition of 3,3′,5,5′-tetramethylbenzidine (TMB)/peroxide mixture, resulting in the conversion of the substrate into a coloured product. This reaction was stopped by the addition of sulfuric acid (0.9 N) and the colour intensity was measured by means of photometry with an ELISA-reader with a 450 nm filter.
(§7) To obtain the values reported in Table 3a, the sigmoidal dose response curves were analysed by computerised curve-fitting, with percent of inhibition plotted against compound concentration. A 4-parameter equation (model 205) in XLfit was used to determine the IC50. The top and the bottom of the curve were fixed to 100 and 0, respectively, and the hill slope was fixed to 1. The IC50 represents the concentration of a compound that is required for inhibiting a biological effect by 50% (Here, it is the concentration where Aβ peptide level is reduced by 50%).

Data set [4] has as its system Aβtotal. Briefly: Method 1: Aβtotal sandwich ELISA on media of SKNBE2 cells carrying APP 695 wild type. It is filed as cell-based. The following applies: SKNBE2 cells APP 695 wild type, 18 hours. On the procedure:
as §5, §6
To quantify the amount of Aβtotal in the cell supernatant, samples and standards were added to a 6E10-coated plate. The plate was allowed to incubate overnight at 4° C. in order to allow formation of the antibody-amyloid complex. Following this incubation and subsequent wash steps a selective anti-AB-antibody conjugate (biotinylated 4G8) was added and incubated for a minimum of 1 hour in order to allow formation of the antibody-Amyloid-antibody-complex. After incubation and appropriate wash steps, a Streptavidine-Peroxidase-Conjugate was added, followed 30 minutes later by an addition of Quanta Blu fluorogenic peroxidase substrate according to the manufacturer's instructions (Pierce Corp., Rockford, Il).
as §7
For orientation: In an ELISA, binding on a coated surface is turned into a signal by an enzyme label.

pIC50: −log10 of the molar value. Some results are limits rather than exact numbers.

One may read the melting point as the temperature, or range, at which the solid turns liquid. The pIC50 is −log10 of the IC50, conventionally taken in molar units. Low readings indicate a large IC50, high ones a small IC50. On to `COc1cc(Nc2cc(C)nc3cn(CC(F)(F)F)nc23)ccc1-c1cnc(C)o1` [Compound 51, N-[3-methoxy-4-(2-methyl-5-oxazolyl)phenyl]-5-methyl-2-(2,2,2-trifluoroethyl)-2H-pyrazolo[4,3-b]pyridin-7-amine], for which the melting point is 211.5 °C. The pIC50 in the data set with Aβ42 [1] (Homo sapiens) is 6.63. This compound gave a pIC50 with Aβtotal [2] (Homo sapiens) of 5.28.
For `Cc1ncc(-c2ccc(Nc3cccc4cn(C)nc34)cc2)o1` [Compound 24, 2-methyl-N-[4-(2-methyl-5-oxazolyl)phenyl]-2H-indazol-7-amine], the melting point amounted to 168.7 °C. In addition, in the data set on Aβ42 [1] (Homo sapiens), the pIC50 is below 5.52. In the data set on Aβtotal [2] (Homo sapiens), this compound showed a pIC50 below 5.52.
Take `CC(C)c1ncc(-c2ccc(Nc3cccc4cn(CC(F)(F)F)nc34)cc2)o1` [Compound 48, N-[4-[2-(1-methylethyl)-5-oxazolyl]phenyl]-2-(2,2,2-trifluoroethyl)-2H-indazol-7-amine]: the melting point came out at 103.9 °C. The pIC50 in the data set with Aβ42 [1] (Homo sapiens) is below 5.52. The pIC50 in the data set with Aβtotal [2] (Homo sapiens) is below 5.52.
For `CCOc1cc(C)c(-n2nc3c(Nc4ccc(-c5cnc(C)o5)cc4)cccc3c2C)cc1C(C)C` [Compound 30, 2-[4-ethoxy-2-methyl-5-(1-methylethyl)phenyl]-3-methyl-N-[4-(2-methyl-5-oxazolyl)phenyl]-2H-indazol-7-amine], the pIC50 is 6.89 in the data set on Aβ42 [1] (Homo sapiens), 6.90 in the data set on Aβ42 [3] (Homo sapiens), below 5.52 with Aβtotal [4] (Homo sapiens) and below 5.00 in the data set on Aβtotal [2] (Homo sapiens).
Regarding `Cc1ncc(-c2ccc(Nc3cccc4c(C)n(-c5ccc(F)cc5)nc34)cc2)o1` [Compound 31, 2-(4-fluorophenyl)-3-methyl-N-[4-(2-methyl-5-oxazolyl)phenyl]-2H-indazol-7-amine .1.5HCl], the pIC50 in the data set on Aβ42 [1] was 7.43; in the data set on Aβ42 [3], 6.90; with Aβtotal [4], below 5.52; with Aβtotal [2], below 5.00.
Consider `Cc1ncc(-c2ccc(Nc3cccc4cn(C5CCOCC5)nc34)cc2)o1` [Compound 28, N-[4-(2-methyl-5-oxazolyl)phenyl]-2-(tetrahydro-2H-pyran-4-yl)-2H-indazol-7-amine], for which the melting point was found to be 224.8 °C. The same compound gave a pIC50 in the data set on Aβ42 [1] (Homo sapiens) below 5.52.
As for `CCOc1cc(C)c(-n2nc3c(Nc4ccc(-n5cnc(C)n5)c(OC)c4)cccc3c2C)cc1C(C)C` [Compound 20, 2-[4-ethoxy-2-methyl-5-(1-methylethyl)phenyl]-N-[3-methoxy-4-(3-methyl-1H-1,2,4-triazol-1-yl)phenyl]-3-methyl-2H-indazol-7-amine], the pIC50 in the data set with Aβ42 [1] (Homo sapiens) is 7.23; in the data set with Aβ42 [3] (Homo sapiens), 7.17; in the data set with Aβtotal [4] (Homo sapiens), below 5.52; in the data set on Aβtotal [2] (Homo sapiens) it was 5.22.
For the compound `Cc1ncc(-c2ccc(Nc3cccc4cn(CC5CC5)nc34)cc2)o1` [Compound 25, 2-(cyclopropylmethyl)-N-[4-(2-methyl-5-oxazolyl)phenyl]-2H-indazol-7-amine .2HCl], the pIC50 is 5.90 in the data set on Aβ42 [1], 5.76 with Aβ42 [3], below 3.82 in the data set with Aβtotal [4] and 4.31 in the data set on Aβtotal [2].
With `COc1cc(Nc2cccc3cn(CC(F)(F)F)nc23)ccc1-n1cnc(C)n1` [Compound 18, N-[3-methoxy-4-(3-methyl-1H-1,2,4-triazol-1-yl)phenyl]-2-(2,2,2-trifluoroethyl)-2H-indazol-7-amine], the pIC50 with Aβ42 [1] (Homo sapiens) is 6.48; in the data set on Aβ42 [3] (Homo sapiens) it was 6.32; with Aβtotal [4] (Homo sapiens), below 5.52; in the data set on Aβtotal [2] (Homo sapiens), below 5.00.
On to `COc1cccc(-n2cc3cccc(Nc4ccc(-n5cnc(C)n5)c(OC)c4)c3n2)c1` [Compound 19, N-[3-methoxy-4-(3-methyl-1H-1,2,4-triazol-1-yl)phenyl]-2-(3-methoxyphenyl)-2H-indazol-7-amine], for which the pIC50 is 6.91 with Aβ42 [1] (Homo sapiens), 6.90 in the data set with Aβ42 [3] (Homo sapiens), below 5.52 in the data set on Aβtotal [4] (Homo sapiens) and 5.52 in the data set with Aβtotal [2] (Homo sapiens).
`CCCCn1cc2cc(C#N)cc(Nc3ccc(-n4cnc(C)c4)c(OC)c3)c2n1` [Compound 11, 2-butyl-7-[[3-methoxy-4-(4-methyl-1H-imidazol-1-yl)phenyl]amino]-2H-indazole-5-carbonitrile .2HCl]: the negative logarithm of the IC50 (pIC50) with Aβ42 [1] is above 5.52; in the data set with Aβ42 [3], 7.11; with Aβtotal [4], below 5.52; with Aβtotal [2], below 5.52.
For `COc1cccc(-n2nc3c(Nc4ccc(-c5ocnc5C)nc4)cccc3c2C)c1` [Compound 4, 2-(3-methoxyphenyl)-3-methyl-N-[6-(4-methyl-5-oxazolyl)-3-pyridinyl]-2H-indazol-7-amine], the pIC50 with Aβ42 [1] (Homo sapiens) was 7.66; with Aβ42 [3] (Homo sapiens) it was 7.26; with Aβtotal [4] (Homo sapiens) it was below 5.52; in the data set with Aβtotal [2] (Homo sapiens), 5.32.
Turning to `COc1cc(Nc2cccc3cn(CC4CC4)nc23)ccc1-n1cnc(C)c1` [Compound 13, 2-(cyclopropylmethyl)-N-[3-methoxy-4-(4-methyl-1H-imidazol-1-yl)phenyl]-2H-indazol-7-amine .2HCl], the pIC50 was 7.10 in the data set with Aβ42 [1], 6.55 in the data set on Aβ42 [3], below 5.52 with Aβtotal [4] and below 5.00 in the data set on Aβtotal [2].
For `COc1cc(Nc2cccc3c(C)n(-c4ccc(F)cc4F)nc23)ccc1-n1cnc(C)c1` [Compound 16, 2-(2,4-difluorophenyl)-N-[3-methoxy-4-(4-methyl-1H-imidazol-1-yl)phenyl]-3-methyl-2H-indazol-7-amine], the pIC50 in the data set on Aβ42 [1] (Homo sapiens) is 7.27; in the data set with Aβ42 [3] (Homo sapiens), 6.72; in the data set with Aβtotal [4] (Homo sapiens), below 5.52; in the data set on Aβtotal [2] (Homo sapiens), 5.07.
In the case of `COc1cc(Nc2cccc3cn(CC4CC4)nc23)ccc1-c1ocnc1C` [Compound 37, 2-(cyclopropylmethyl)-N-[3-methoxy-4-(4-methyl-5-oxazolyl)phenyl]-2H-indazol-7-amine .2HCl], the pIC50 in the data set on Aβ42 [1] was below 5.52; in the data set on Aβ42 [3], 5.58; with Aβtotal [4], below 5.52; in the data set with Aβtotal [2], below 5.52.
`Cc1ncoc1-c1ccc(Nc2cccc3c(C)n(-c4ccc(F)cc4)nc23)cn1` [Compound 46, 2-(4-fluorophenyl)-3-methyl-N-[6-(4-methyl-5-oxazolyl)-3-pyridinyl]-2H-indazol-7-amine]: the pIC50 with Aβ42 [1] (Homo sapiens) was 7.18; with Aβ42 [3] (Homo sapiens), 6.70; in the data set with Aβtotal [4] (Homo sapiens), below 5.52; with Aβtotal [2] (Homo sapiens), 5.37.
